Source: the supplement of paper PMC10307832

Assays:
Assay in all cases: relative viability (nuclei count vs DMSO), 5 days (fraction); higher = more cells survive
XMD8-85 + Tozasertib = compound: CN1CCN(CC1)C2=CC(=C(C=C2)NC3=NC=C4C(=N3)N(C5=CC=CC=C5C(=O)N4C)C)OC [XMD8-85] + Cc1cc(Nc2cc(N3CCN(C)CC3)nc(Sc3ccc(NC(=O)C4CC4)cc3)n2)n[nH]1 [Tozasertib] (partner 0.1 µM)
Outline: (§1)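 After 5 days of treatment, lung cancer cells in 1536-well plates were fixed and stained in a single step (final 0.05% Triton X-100, 1% formaldehyde, 1 ug/ml Hoechst) and their nuclei counted on 4× images. Treatment had been applied by pin tool the day after seeding as one drug alone or as a fixed anchor-drug dose with five library-drug doses (not always all listed) in √10 steps. Relative viability is the nuclei count of treated wells divided by that of vehicle wells, and values are medians of duplicate plates.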

XMD8-85 + AZD7762 = compound: CN1CCN(CC1)C2=CC(=C(C=C2)NC3=NC=C4C(=N3)N(C5=CC=CC=C5C(=O)N4C)C)OC [XMD8-85] + NC(=O)Nc1cc(-c2cccc(F)c2)sc1C(=O)N[C@H]1CCCNC1 [AZD7762] (partner 0.2 µM)
Outline: as §1

XMD8-85 + Pemetrexed = compound: CN1CCN(CC1)C2=CC(=C(C=C2)NC3=NC=C4C(=N3)N(C5=CC=CC=C5C(=O)N4C)C)OC [XMD8-85] + Nc1nc2[nH]cc(CCc3ccc(C(=O)N[C@@H](CCC(=O)O)C(=O)O)cc3)c2c(=O)[nH]1 [Pemetrexed] (partner 0.2 µM)
Outline: as §1

4EGI-1 + Phenformin = compound: O=C(O)C(Cc1ccccc1[N+](=O)[O-])=NNc1nc(-c2ccc(Cl)c(Cl)c2)cs1 (mixture of isomers) [4EGI-1] + N=C(N)NC(=N)NCCc1ccccc1 [Phenformin] (partner 250 µM)
Outline: as §1

| Cell Line | relative viability (XMD8-85 + Tozasertib; first compound 0.08 µM) | relative viability (XMD8-85 + Tozasertib; first compound 0.253 µM) | relative viability (XMD8-85 + Tozasertib; first compound 0.8 µM) | relative viability (XMD8-85 + Tozasertib; first compound 2.53 µM) | relative viability (XMD8-85 + Tozasertib; first compound 8 µM) | relative viability (XMD8-85 + AZD7762; first compound 0.08 µM) | relative viability (XMD8-85 + AZD7762; first compound 0.253 µM) | relative viability (XMD8-85 + AZD7762; first compound 0.8 µM) | relative viability (XMD8-85 + AZD7762; first compound 2.53 µM) | relative viability (XMD8-85 + AZD7762; first compound 8 µM) | relative viability (XMD8-85 + Pemetrexed; first compound 0.08 µM) | relative viability (XMD8-85 + Pemetrexed; first compound 0.253 µM) | relative viability (XMD8-85 + Pemetrexed; first compound 0.8 µM) | relative viability (XMD8-85 + Pemetrexed; first compound 2.53 µM) | relative viability (XMD8-85 + Pemetrexed; first compound 8 µM) | relative viability (4EGI-1 + Phenformin; first compound 0.5 µM) | relative viability (4EGI-1 + Phenformin; first compound 5 µM) | relative viability (4EGI-1 + Phenformin; first compound 15.81 µM) | relative viability (4EGI-1 + Phenformin; first compound 50 µM) | relative viability (4EGI-1 + Phenformin; first compound 1.581 µM) |
| --- | --- | --- | --- | --- | --- | --- | --- | --- | --- | --- | --- | --- | --- | --- | --- | --- | --- | --- | --- | --- |
| NCI-H2126 | 0.831 | 0.843 | 0.901 | 0.735 | 0.533 | 1.06 | 1.12 | 0.962 | 1.05 | 1.06 | 0.705 | 0.758 | 0.693 | 0.707 | 0.623 | 0.553 | 0.569 | 0.488 | 0.463 | – |
| NCI-H596 | 0.75 | 0.834 | 0.975 | 0.728 | 0.488 | 1.18 | 0.944 | 1.06 | 1.1 | 0.966 | 0.477 | – | 0.457 | 0.465 | 0.368 | 0.859 | 1.01 | 0.961 | 0.705 | 0.732 |
| NCI-H2009 | 0.727 | 0.696 | 0.703 | 0.416 | 0.308 | – | – | – | – | – | 0.958 | 1.03 | 1.1 | 0.885 | 0.767 | 0.55 | 0.528 | 0.366 | 0.18 | 0.494 |
| NCI-H2228 | 0.194 | 0.261 | 0.267 | 0.207 | 0.197 | – | – | – | – | – | 0.334 | 0.319 | 0.343 | 0.398 | 0.237 | 0.314 | 0.379 | 0.298 | 0.141 | 0.313 |
| NCI-H2085 | 0.745 | 0.913 | 0.791 | 0.644 | 0.502 | 0.851 | 0.936 | 0.948 | 0.993 | 0.881 | 0.889 | 0.826 | 0.849 | 0.811 | 0.713 | 0.8 | 0.823 | 0.536 | 0.404 | 0.795 |
| SW 900 | 0.553 | 0.657 | 0.557 | 0.424 | 0.312 | 0.555 | 0.669 | 0.589 | 0.626 | 0.304 | 0.46 | 0.505 | 0.506 | 0.477 | 0.282 | 0.812 | 0.807 | 0.527 | 0.322 | – |
| H3255 | 0.599 | 0.646 | 0.651 | 0.25 | 0.469 | 0.979 | 0.868 | 0.894 | 0.925 | 0.554 | 0.558 | – | 0.525 | 0.599 | 0.375 | 0.424 | 0.385 | 0.308 | 0.324 | 0.347 |
| UMC-11 | 0.251 | 0.209 | 0.233 | 0.248 | 0.197 | – | – | – | – | – | 0.818 | 0.745 | 0.82 | 0.707 | 0.391 | 0.384 | 0.334 | 0.28 | 0.237 | 0.365 |
| NCI-H727 | 0.55 | 0.588 | 0.6 | 0.458 | 0.47 | 0.768 | 0.619 | 0.465 | 0.576 | 0.42 | – | – | – | – | – | 0.648 | 0.511 | 0.572 | 0.332 | 0.518 |
| NCI-H460 | 0.445 | 0.339 | 0.445 | 0.329 | 0.0548 | 0.624 | 0.643 | 0.69 | 0.659 | 0.432 | 0.0608 | 0.0555 | 0.0635 | 0.0564 | 0.0781 | 0.549 | 0.593 | 0.243 | 0.0399 | – |
| NCI-H1793 | 0.277 | 0.322 | 0.297 | 0.289 | 0.255 | – | 0.408 | 0.483 | 0.344 | 0.413 | – | 0.824 | 0.839 | 1.18 | 0.645 | 0.375 | 0.418 | 0.367 | 0.297 | 0.47 |
| NCI-H1563 | – | – | – | – | – | – | – | – | – | – | 0.718 | 0.809 | 0.67 | 0.778 | 0.631 | 0.624 | 0.602 | 0.69 | 0.55 | 0.613 |
| NCI-H1648 | 0.438 | 0.394 | – | – | 0.324 | 0.483 | 0.572 | 0.587 | 0.717 | 0.726 | – | 0.693 | 0.826 | 0.765 | 0.692 | – | – | – | – | – |
| COR-L 105 | 0.405 | 0.363 | 0.338 | 0.377 | 0.26 | – | – | – | – | – | 1.01 | 1.16 | 1.21 | 0.816 | 0.58 | 0.46 | 0.488 | 0.375 | 0.31 | 0.442 |
| COR-L23 | 0.222 | 0.216 | 0.197 | 0.163 | 0.144 | – | – | – | – | – | 0.187 | 0.2 | 0.199 | 0.187 | 0.18 | 0.49 | 0.429 | 0.296 | 0.144 | 0.275 |
| SK-LU-1 | 0.278 | 0.328 | 0.276 | 0.294 | 0.185 | – | – | – | – | – | 0.973 | 0.916 | 0.966 | 1.1 | 0.851 | 0.653 | 0.681 | 0.632 | 0.264 | 0.546 |
| A549 | – | – | – | – | – | – | – | – | – | – | – | – | – | – | – | 0.154 | 0.172 | 0.148 | 0.0933 | – |
| NCI-H661 | 0.383 | 0.346 | 0.366 | 0.353 | 0.392 | – | – | – | – | – | 0.944 | 0.946 | 0.93 | 1.01 | 0.782 | 0.274 | 0.297 | 0.274 | 0.243 | 0.267 |
| NCI-H2023 | 0.266 | 0.355 | 0.432 | 0.335 | 0.163 | – | – | – | – | – | 0.189 | 0.223 | 0.326 | 0.255 | 0.165 | 0.503 | 0.425 | 0.281 | 0.117 | – |
| ABC-1 | 0.142 | 0.159 | 0.19 | 0.15 | 0.231 | 0.904 | 0.805 | 0.799 | 0.876 | 0.859 | – | – | – | – | – | 0.239 | 0.215 | 0.209 | 0.171 | 0.234 |
| NCI-H1703 | – | – | – | – | – | 0.107 | 0.147 | 0.133 | 0.119 | 0.107 | – | – | – | – | – | – | – | – | – | – |
